{
  "source": "patent US20180311276A1",
  "about": "“Method and Apparatus for Treating Oral Disease in Animals” (priority 2015, published 2018)",
  "key": {"[1]": {"tested_on": "oral bacteria responsible for plaque formation", "test": "kill of oral bacteria responsible for plaque formation", "assay_type": "cell-based", "conditions": "2 micrograms/mL", "description": "(§1) The inventor evaluated a variety elemental iodine concentrations e.g., 0.5, 1.0, 2.0, 3, 5, 10, 15 and 20 micrograms/mL and discovered that dogs preferred drinking water with elemental iodine below 2 micrograms/mL. We evaluated the ability of elemental iodine to kill oral bacteria at a concentration of 2 micrograms/mL responsible for plaque formation and discovered that elemental iodine was effective at this dose i.e., microbial kill >3 logs/min. We evaluated lower concentrations of elemental iodine e.g., 0.05, 0.1 and 0.5 micrograms/mL. […] We hypothesized that molecular iodine concentrations below 0.5 micrograms/mL may not be not effective in killing oral bacteria responsible for plaque formation. We confirmed this assumption by performing microbial analysis. The inventor sent samples of two part preparations e.g., 1 vial with water and a second vial with iodine in 100% ethyl alcohol. These were combined before analysis so that the final concentrations were 0.05, 0.1, 0.5, 1.0, 2.0 and 5.0 micrograms/mL. The test organism was a known plaque-producing bacterium i.e., Neisseria spp. A contract research laboratory in Texas i.e., MicroChem Laboratories performed the use dilution experiments."}, "[2]": {"tested_on": "plaque formation on teeth", "test": "two double-blind, placebo-controlled clinical trials at a humane shelter, plaque prevention", "assay_type": "in vivo, dogs", "description": "(§2) Plaque formation leads to gingivitis and periodontal disease and often progresses to systemic disease and death in dogs. Clinical trial 1 was conducted at a humane shelter with all dogs enclosed in kennels using a manually added drug vs. placebo. Subsequently, Clinical Trial 2 was conducted at a humane shelter with all dogs enclosed in kennels but in this case the iodine vs placebo was administered via an automated system.\nWe conducted two double-blind, placebo-controlled clinical trials using both 0.5 and 1.0 micrograms elemental iodine in water."}, "thyroid hormone levels": {"tested_on": "thyroid hormone levels", "test": "thyroid hormone levels in the two shelter clinical trials", "assay_type": "in vivo, dogs", "conditions": "iodine added to dog drinking water", "description": "as §2\nFurthermore, neither dog weight or age affected the plaque prevention effect. Finally, the iodine added to dog drinking water had no effect on dog thyroid hormone levels."}, "plaque": {"tested_on": "plaque", "test": "double-blind, placebo controlled clinical trial in 20 adult dogs, whole mouth plaque scores (Example 1)", "assay_type": "in vivo", "conditions": "28 days", "description": "First, a double-blind, placebo controlled clinical trial was conducted using 20 adult dogs of mixed breed and weights. The dogs were randomly divided into two groups. […] Group 1 dogs were further divided into two groups of five dogs. Five received molecular iodine [I2] dissolved into 1000 mL water to a final concentration of 0.5 microgram/mL. The second group of five dogs received molecular iodine [I2] dissolved into 1000 mL water to a final concentration of 1.0 microgram/mL. The placebo group of 10 dogs received no iodine. […]\nEach dog was weighed, blood drawn for determination of thyroid level and a qualitative assessment was made for halitosis using a 0, 1, 2, 3, 4 and 5 scale with 0 indicating no discernible “doggie breath produced by hydrogen sulfide H2S” and 5 being very noxious, strong odor. […] At the end of the study i.e., 28 days each dog was sedated, breath was evaluated and teeth were stained with disclosing solution that is proven to stain plaque red. The attending veterinarian who measured the initial marginal tooth-gum line measured all the proscribed teeth using the published technique (Scherl D S, Coffman L, et al. Validation of a New Dental Plaque Quantification Method in Dogs. J Vet Dent 24(1); 14-20, 2007). All values from all 20 dogs were recorded and whole mouth scores were calculated."}, "Neisseria spp.": {"tested_on": "Neisseria spp.", "test": "use dilution experiments (MicroChem Laboratories)", "assay_type": "cell-based", "conditions": "for reduction in microbial concentration / kill: 1 minute time point", "description": "as §1"}, "[3]": {"tested_on": "halitosis (volatile sulfur compounds, hydrogen sulfide)", "test": "halitosis secondary end point: Halimeter VSC readings and qualitative odor 0-5 scale (Example 1)", "assay_type": "in vivo, dogs", "description": "Each dog was weighed, blood drawn for determination of thyroid level and a qualitative assessment was made for halitosis using a 0, 1, 2, 3, 4 and 5 scale with 0 indicating no discernible “doggie breath produced by hydrogen sulfide H2S” and 5 being very noxious, strong odor. Dogs were anesthetized, marginal tooth-gum line measurements were taken for proscribed teeth (required for veterinary oral health counsel certification of efficacy at reducing plaque in dogs found at www.VOHC.com) and dog teeth were cleaned to remove all plaque and tarter. All dogs were given either drug or placebo each morning for 28 days. Journal entries were kept for each dog to monitor for compliance, observations regarding dog drinking behavior and comments regarding dog breath/odor. Once each dog drank all the water i.e., 1000 mL the water bowl was filled with fresh water. The following day all the remaining water was discarded and the clinical trial sample was added to the water bowl. At the end of the study i.e., 28 days each dog was sedated, breath was evaluated and teeth were stained with disclosing solution that is proven to stain plaque red. The attending veterinarian who measured the initial marginal tooth-gum line measured all the proscribed teeth using the published technique (Scherl D S, Coffman L, et al. Validation of a New Dental Plaque Quantification Method in Dogs. J Vet Dent 24(1); 14-20, 2007). All values from all 20 dogs were recorded and whole mouth scores were calculated.\nThe halitosis secondary end point was more complicated since the attempt was made to use an Interscan Corporation Halimeter® that quantitatively measures volatile sulfur compounds (VSC) in the oral cavity. The Halimeter was designed for use by dentists and humans. One of the requirements to obtain reliable readings is for the conscious human subject to blow into a straw connected into the Halimeter. The problem encountered with dogs while under anesthesia is obtaining a valid reading since they are unable to “blow” into the straw. Early dog readings were erratic and turned out to be unreliable. […]"}, "[4]": {"test": "saturation of absolute alcohol with molecular iodine", "assay_type": "physicochemical", "description": "One embodiment of the present invention features a carrier liquid ethanol. The ethanol is preferably devoid of water, as in absolute alcohol. As used herein, the term “absolute alcohol” refers to alcohol with no or limited water content as such term is used in a commercial context. One formulation molecular iodine having a concentration in absolute alcohol in the range of 0.1 to 1.0 Gm molecular iodine in 13 milliliters of absolute alcohol. Molecular iodine saturates absolute alcohol at a concentration of 1 Gm per 13 milliliters of absolute alcohol. A further embodiment of the present formulation features a molecular sieve particle of between 2 and 4 A which captures and adsorbs water."}, "thyroid level (T4)": {"tested_on": "thyroid level (T4)", "test": "thyroid level (T4) in the Example 1 clinical trial", "assay_type": "in vivo, dogs", "conditions": "0.5 or 1.0 microgram/mL in drinking water, 28 days", "description": "Each dog was weighed, blood drawn for determination of thyroid level and a qualitative assessment was made for halitosis using a 0, 1, 2, 3, 4 and 5 scale with 0 indicating no discernible “doggie breath produced by hydrogen sulfide H2S” and 5 being very noxious, strong odor. Dogs were anesthetized, marginal tooth-gum line measurements were taken for proscribed teeth (required for veterinary oral health counsel certification of efficacy at reducing plaque in dogs found at www.VOHC.com) and dog teeth were cleaned to remove all plaque and tarter. All dogs were given either drug or placebo each morning for 28 days. Journal entries were kept for each dog to monitor for compliance, observations regarding dog drinking behavior and comments regarding dog breath/odor. Once each dog drank all the water i.e., 1000 mL the water bowl was filled with fresh water. […] At the end of the study i.e., 28 days each dog was sedated, breath was evaluated and teeth were stained with disclosing solution that is proven to stain plaque red. The attending veterinarian who measured the initial marginal tooth-gum line measured all the proscribed teeth using the published technique (Scherl D S, Coffman L, et al. Validation of a New Dental Plaque Quantification Method in Dogs. J Vet Dent 24(1); 14-20, 2007). All values from all 20 dogs were recorded and whole mouth scores were calculated."}},
  "data": [
    {"molecule": "II", "note": "[molecular iodine]", "values": [
      {"measurement": "microbial kill", "setting": "[1]", "result": "> 3", "unit": "logs/min"},
      {"measurement": "plaque prevention", "setting": "[2]; both 0.5 and 1.0 micrograms/mL water", "result": "proven effective"},
      {"measurement": "prevention of plaque formation, 0.5 versus 1.0 micrograms/mL", "setting": "[2]; dog drinking water, all dogs regardless of size or age", "result": "statistically significantly identical"},
      {"measurement": "effect on dog thyroid hormone levels", "setting": "thyroid hormone levels", "result": "no effect"},
      {"measurement": "whole mouth plaque scores from Day 0 to Day 28, Treated dogs compared to Placebo dogs", "setting": "plaque; 0.5 or 1.0 microgram/mL in 1000 mL drinking water, once daily", "result": "statistically significant reduction"},
      {"measurement": "mean plaque score, dogs receiving 0.5 microgram/mL versus 1.0 micrograms/mL", "setting": "plaque; drinking water", "result": "no difference"},
      {"measurement": "antimicrobial efficacy", "setting": "Neisseria spp.; 0.05 micrograms/mL", "result": "no antimicrobial efficacy"},
      {"measurement": "antimicrobial efficacy", "setting": "Neisseria spp.; 0.1 micrograms/mL", "result": "no antimicrobial efficacy"},
      {"measurement": "reduction in microbial concentration", "setting": "Neisseria spp.; 0.5 microgram/mL", "result": 100, "unit": "fold"},
      {"measurement": "reduction in microbial concentration", "setting": "Neisseria spp.; 1.0 microgram/mL", "result": 1000, "unit": "fold"},
      {"measurement": "kill", "setting": "Neisseria spp.; 2.0 microgram/mL", "result": "> 4", "unit": "logs"},
      {"measurement": "kill", "setting": "Neisseria spp.; 5.0 microgram/mL", "result": "> 4", "unit": "logs"},
      {"measurement": "killing oral bacteria", "setting": "Neisseria spp.; concentrations below 0.5 micrograms/mL, independent use dilution experiments", "result": "not effective"},
      {"measurement": "Halimeter VSC levels at the conclusion of the clinical trial", "setting": "[3]; 0-5 scale, 3 dogs of the iodine group, initial levels 4-5, not statistically significant", "result": "0-1"},
      {"measurement": "qualitative odor, final", "setting": "[3]; 0-5 scale, 5 iodine-treated dogs, initial smell 3-5", "result": "0-1"},
      {"measurement": "number of iodine-treated dogs with reduced oral smell or doggie breath or VSC/H2S", "setting": "[3]; of 10 iodine-treated dogs, 28 days", "result": 8},
      {"measurement": "concentration at which molecular iodine saturates absolute alcohol", "setting": "[4]", "result": "1 Gm per 13 milliliters of absolute alcohol"},
      {"measurement": "T4 levels after treatment", "setting": "thyroid level (T4)", "result": "remained within normal range"}
    ]}
  ]
}
